Reference: PMC11864979, “First-in-class ultralong-target-residence-time p38α inhibitors as a mitosis-targeted therapy for colorectal cancer” (Nature Cancer, 2025)
pIC50: −log10 of the molar value. Values joined by “and” are separate entries in the source; they are usually repeats but may differ in a detail not shown here. Equal values may be shown once.

Experiments:
[1] = test system: HCT 116; experiment: cell viability in human CRC cell line HCT 116; type: cell-based
Procedure: (§1) To generate KAP^2D cells, KAP organoids were isolated from Matrigel, fragmented by mechanical dissociation and plated without any extracellular matrix on common cell culture dishes. Phoenix-Eco packaging cells (CRL-3214), HCT-15 (CCL-225), HCT 116 (CCL-247), COLO 205 (CCL-222), LS 174T (CL-188), RKO (CRL-2577) and HT-29 (HTB-38) were obtained from the American Type Culture Collection. The cells were cultured at 37 °C and 7% CO2 with RPMI (KAP^2D cells) or DMEM (other cell lines), supplemented with 10% FBS and penicillin–streptomycin. KAP^2D cells were authenticated using PCR (Kras locus and Trp53 locus). Phoenix-Eco packaging cells and HCT-15, HCT 116, COLO 205, LS 174T, RKO and HT-29 cells were authenticated by the provider using short tandem repeat profiling. No commonly misidentified cell lines were used. Mycoplasma contamination was excluded by a PCR-based analysis.
(§2) For in vitro treatment studies, organoids were mechanically dissociated and digested using TrypLE supplemented with 100 µg ml^−1 DNaseI and 10.5 µM Y-27632 dihydrochloride (Invitrogen) at 37 °C. A total of 1,000–2,000 single cells were plated per well in white 96-well plates (Greiner) in culture medium containing 10% GFR Matrigel or Cultrex BME. The treatment with doxycycline (5 µg ml^−1), pharmacological inhibitors or corresponding volumes of DMSO was started 24 h after plating. Doxycycline was obtained from Sigma-Aldrich. […] Cell viability was measured by means of CellTiter-Glo 3D or CellTiter-Glo 2.0 reagent (Promega) according to the manufacturers’ instructions and the Infinite M Plex reader (Tecan, i-control version 3.9.1 software). Results were normalized to vehicle (DMSO) or to shNC. For cell-doubling assays, the cell number was quantified at the corresponding time points using Guava EasyCyte flow cytometer (Luminex, CytoSoft v5.2 software).

[2] = test system: PDO9; experiment: cell viability in patient-derived CRC organoids PDO9; type: cell-based, human
Procedure: as §2

[3] = test system: KAP^2D cells; experiment: P-H3^S10 / α-tubulin staining, mitotic phases in KAP^2D cells; type: cell-based, mouse; conditions: replicates, experiment and repetition
Procedure: Immunofluorescence staining on cells and organoids was performed on glass coverslips or tissue culture chambers (Sarstedt). Organoids were plated in medium containing 10% Matrigel or Cultrex BME. The cultures were fixed with 4% paraformaldehyde and stained with specific antibodies and DAPI (Vector Labs). All used antibodies and dilutions are listed in the Nature Portfolio Reporting Summary. For analyzing DNA synthesis, the Molecular Probes Click-iT EdU Alexa Fluor 555 kit was used 24 h after EdU incorporation with DAPI counterstaining. SA-β-Gal staining of cells was performed in cell culture dishes (cells) or tissue culture chambers (organoids) after fixation with 0.5% glutaraldehyde as described above. Human cultures were incubated with X-Gal solution at pH 6.0 for ~4 h. […] Positive cells were quantified using ImageJ version 1.53a software. The analysis of mitosis was performed with an LSM800 Airyscan (Zeiss) microscope (ZEN version 3.0 software). An Airyscan autofilter processing was applied before image analysis.

[4] = test system: HCT-15; experiment: cell viability in human CRC cell line HCT-15; type: cell-based
Procedure: as §1, §2

[5] = molecular target: p38α (Homo sapiens, UniProt Q16539); experiment: target residence time (TRT) fluorescence polarization jump-dilution assay; type: binding
Sequence of p38α (Q16539 whole entry): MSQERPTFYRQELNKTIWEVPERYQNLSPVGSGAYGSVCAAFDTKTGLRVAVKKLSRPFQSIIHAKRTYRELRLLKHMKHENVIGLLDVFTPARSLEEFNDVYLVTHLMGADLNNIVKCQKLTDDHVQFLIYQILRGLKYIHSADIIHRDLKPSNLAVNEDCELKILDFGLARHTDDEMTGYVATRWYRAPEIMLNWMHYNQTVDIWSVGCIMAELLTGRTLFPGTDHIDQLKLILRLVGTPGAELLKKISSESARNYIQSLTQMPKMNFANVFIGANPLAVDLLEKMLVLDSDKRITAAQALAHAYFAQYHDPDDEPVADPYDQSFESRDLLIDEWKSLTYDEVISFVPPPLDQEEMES
Procedure: TRTs were determined using a fluorescence polarization assay kit (Transcreener ADP, BellBrook Labs)[29]. […] The formed complex was ‘jump-diluted’ 1:100 (0.5 µl in 49.5 µl) in a 96-half-area-well plate with ATF2 (82 μM), ATP (40 μM) and ADP as the kinase assay detection reagents. The plate was measured every 3 min for 4 h. Fluorescence polarization was detected using the plate reader VictorNivo (PerkinElmer). The data were analyzed using the integrated rate equation in GraphPad Prism version 7.03 software. The residence time was calculated from the reciprocal value of koff.

## CNC(=O)c1ccc2c(c1)C(=O)c1ccc(Nc3ccc(F)c(NC(=O)C4CC4)c3)cc1CC2 [Compound 2015]
[1]; 0.0137 µM, 4 d
  HCT 116 Cell viability (%): 85.88% and 79.68% and 90.88% and 87.20%
[1]; 0.0412 µM, 4 d
  HCT 116 Cell viability (%): 87.17% and 85.37% and 79.18% and 81.34% and 80.02%
[1]; 0.1235 µM, 4 d
  HCT 116 Cell viability (%): 87.59% and 86.63% and 89.97% and 77.29% and 78.27%
[1]; 0.3704 µM, 4 d
  HCT 116 Cell viability (%): 48.15% and 38.21% and 37.69% and 25.63% and 24.67% and 24.34%
[1]; 1.1111 µM, 4 d
  HCT 116 Cell viability (%): 30.94% and 32.21% and 17.75% and 19.27% and 17.57%
[1]; Homo sapiens, 96 h, HCT 116, 4 d of treatment
  pIC50: 6.65
[1]; Homo sapiens, HCT-116, 96 h, 0.0137 µM, 4 d, read-out: HCT 116 Cell viability (%)
  viability at 0.0137 µM: 90.6%
[1]; Homo sapiens, HCT-116, 96 h, 0.0412 µM, 4 d, read-out: HCT 116 Cell viability (%)
  viability at 0.0412 µM: 90.7%
[1]; Homo sapiens, HCT-116, 96 h, 0.1235 µM, 4 d, read-out: HCT 116 Cell viability (%)
  viability at 0.1235 µM: 90.7%
[1]; Homo sapiens, HCT-116, 96 h, 1.1111 µM, 4 d
  viability at 1.1111 µM: 28.5%
[2]; Homo sapiens, 96 h, PDO9, 0.5 µM, 4 d, read-out: Cell viability (%)
  viability at 0.5 µM: 20.8%
[2]; Homo sapiens, 96 h, PDO9, 1 µM, 4 days
  viability at 1 µM: 9.78%
[2]; PDO9, 0.5 µM, 4 d, 0.5 µM
  Cell viability (%): 30.12% and 37.18%
[2]; PDO9, 1 µM, 4 days, 1 µM
  Cell viability (%): 8.84% and 14.14%
[3]; Fig. 4f
  Anaphase, % (of fully P-H3S10+ cells): 0.00%
  Metaphase, % (of fully P-H3S10+ cells): 0.00%
  Multipolar mitosis, % (of fully P-H3S10+ cells): 75.00% and 72.55% and 66.43% and 67.83% and 80.50% and 84.38%
  Telophase, % (of fully P-H3S10+ cells): 1.72% and 0.65% and 0.70% and 0.00% and 1.89% and 0.78%
[3]; Fig. 4d
  P-H3S10+ cells, fully positive: 12.93% and 17.02% and 15.43% and 13.33% and 14.34% and 14.40%
  P-H3S10+ cells, partially positive: 12.04% and 13.24% and 14.13% and 9.97% and 10.28% and 12.15%
[4]; 0.0137 µM, 4 d
  HCT-15 Cell viability (%): 103.10% and 103.13% and 91.18% and 87.03% and 85.56%
[4]; 0.0412 µM, 4 d
  HCT-15 Cell viability (%): 84.86% and 83.29% and 102.50% and 98.30% and 96.97%
[4]; 0.1235 µM, 4 d
  HCT-15 Cell viability (%): 82.55% and 82.85% and 86.50% and 79.01% and 79.10%
[4]; 0.3704 µM, 4 d
  HCT-15 Cell viability (%): 32.71% and 35.41% and 27.58% and 24.60% and 25.76%
[4]; 1.1111 µM, 4 d
  HCT-15 Cell viability (%): 27.21% and 26.38% and 23.73% and 21.02% and 21.11%
[4]; 3.3333 µM, 4 d
  HCT-15 Cell viability (%): 22.84% and 23.64% and 17.67% and 16.95% and 16.80%
[4]; 10.0000 µM, 4 d
  HCT-15 Cell viability (%): 23.68% and 23.79% and 17.32% and 16.59% and 17.19%
[4]; Homo sapiens, 96 h, HCT-15, 4 d of treatment
  pIC50: 6.74
[4]; Homo sapiens, HCT-15, 96 h, 0.0137 µM, 4 d, read-out: HCT-15 Cell viability (%)
  viability at 0.0137 µM: 103%
[4]; Homo sapiens, HCT-15, 96 h, 0.0412 µM, 4 d, read-out: HCT-15 Cell viability (%)
  viability at 0.0412 µM: 89.2%
[4]; Homo sapiens, HCT-15, 96 h, 0.1235 µM, 4 d, read-out: HCT-15 Cell viability (%)
  viability at 0.1235 µM: 85.9%
[4]; Homo sapiens, HCT-15, 96 h, 0.3704 µM, 4 d, read-out: HCT-15 Cell viability (%)
  viability at 0.3704 µM: 23.5%
[4]; Homo sapiens, HCT-15, 96 h, 1.1111 µM, 4 d, read-out: HCT-15 Cell viability (%)
  viability at 1.1111 µM: 31.6%
[4]; Homo sapiens, HCT-15, 96 h, 3.3333 µM, 4 d, read-out: HCT-15 Cell viability (%)
  viability at 3.3333 µM: 23.9%
[4]; Homo sapiens, HCT-15, 96 h, 10.0000 µM, 4 d, read-out: HCT-15 Cell viability (%)
  viability at 10 µM: 24.1%
[5]; Fig. 2e, replicates
  TRT: 4961.7 s and 5666.0 s and 5182.4 s
[5]; reciprocal of koff
  TRT: 5,270 s
